# US4791118A, “Quinolonecarboxylic acid derivatives and their preparation” (Kyorin Pharmaceutical Co., Ltd., priority 1985, dated 1988)
# How the values were obtained:
# E. faecalis IID 682 = assay: MIC, aerobic bacteria; type: cell-based; settings: Enterococcus faecalis, IID682, Gram +, 10^6 cells/ml
# S. pyogenes 3130 = assay: MIC, clinical isolates; type: cell-based; settings: Streptococcus pyogenes; clinical isolate S. pyogenes 3130; 10^6 cells/ml
# [1] = tested on: Enterobacter cloacae IID 977; assay: MIC, aerobic bacteria; settings: IID977
# E. lentum GAI 5242 = assay: microbe, parasite or virus in culture; settings: Eggerthella lenta, GAI5242
# [2] = tested on: Bacillus subtilis PCI 219; assay: microbe, parasite or virus in culture; settings: PCI219
# S. pyogenes 4372 = assay: MIC, clinical isolates; type: cell-based; settings: Streptococcus pyogenes; clinical isolate S. pyogenes 4372; 10^6 cells/ml
# P. cepacia GIFU 518 = assay: microbe, parasite or virus in culture; settings: Burkholderia cepacia, GIFU518
# [3] = tested on: Pseudomonas aeruginosa V-1; assay: MIC, aerobic bacteria; settings: V1
# C. ramosum = assay: MIC, anaerobic bacteria; settings: Thomasclavelia ramosa
# S. agalactiae 4342 = assay: MIC, clinical isolates; type: cell-based; settings: Streptococcus agalactiae; clinical isolate S. agalactiae 4342; 10^6 cells/ml
# P. maltophilia GIFU 2491 = assay: MIC, aerobic bacteria; type: cell-based; settings: Stenotrophomonas maltophilia, GIFU2491, Gram -, 10^6 cells/ml
# [4] = tested on: Peptostreptococcus anaerobius KYA 27337; assay: MIC, anaerobic bacteria; type: cell-based; settings: KYA27337, Gram +, 10^6 cells/ml
# F. necrophorum S-45 = assay: MIC, anaerobic bacteria; type: cell-based; settings: Fusobacterium necrophorum, S45, Gram -, 10^6 cells/ml
# K. pneumoniae 1-220S = assay: microbe, parasite or virus in culture; settings: Klebsiella pneumoniae, 1220S
# F. nucleatum = assay: MIC, anaerobic bacteria; type: cell-based; settings: Fusobacterium nucleatum, Gram -, 10^6 cells/ml
# From the text: (§1) | Organism (10^6 cells/ml)
# B. fragilis 25285 = assay: MIC, anaerobic bacteria; type: cell-based; settings: Bacteroides fragilis, Gram -, 10^6 cells/ml
# From the text: as §1
# [5] = tested on: Fusobacterium mortiferum 4249; assay: MIC, anaerobic bacteria; type: cell-based; settings: Gram -, 10^6 cells/ml
# From the text: as §1
# Pst. micros UPI 5464-1 = assay: MIC, anaerobic bacteria; type: cell-based; settings: Parvimonas micra, UPI54641, Gram +, 10^6 cells/ml
# From the text: as §1
# [6] = tested on: Bacteroides fragilis GM 7000; assay: MIC, anaerobic bacteria; type: cell-based; settings: GM7000, Gram -, 10^6 cells/ml
# From the text: as §1
# B. distasonis 8503 = assay: MIC, anaerobic bacteria; type: cell-based; settings: Parabacteroides distasonis, Gram -, 10^6 cells/ml
# From the text: as §1
# B. vulgatus KYA 29327 = assay: MIC, anaerobic bacteria; type: cell-based; settings: Phocaeicola vulgatus, KYA29327, Gram -, 10^6 cells/ml
# From the text: as §1
# [7] = tested on: Clostridium difficile I-E; assay: MIC, anaerobic bacteria; type: cell-based; settings: Clostridioides difficile, Gram +, 10^6 cells/ml
# From the text: as §1
# [8] = tested on: Veillonella parvula KYA 10790; assay: MIC, anaerobic bacteria; type: cell-based; settings: KYA10790, Gram -, 10^6 cells/ml
# From the text: as §1
# B. fragilis 0558 = assay: MIC, anaerobic bacteria; type: cell-based; settings: Bacteroides fragilis, Gram -, 10^6 cells/ml
# From the text: as §1
# [9] = tested on: Peptococcus magnus KY 017; assay: MIC, anaerobic bacteria; type: cell-based; settings: Finegoldia magna, KY017, Gram +, 10^6 cells/ml
# From the text: as §1
# E. faecalis 49 = assay: MIC, clinical isolates; type: cell-based; settings: Enterococcus faecalis; clinical isolate E. faecalis 49; 10^6 cells/ml
# S. pyogenes 3131 = assay: MIC, clinical isolates; type: cell-based; settings: Streptococcus pyogenes; clinical isolate S. pyogenes 3131; 10^6 cells/ml
# [10] = tested on: Eubacterium limosum KYA 8486; assay: MIC, anaerobic bacteria; settings: KYA8486
# S. agalactiae 4368 = assay: MIC, clinical isolates; type: cell-based; settings: Streptococcus agalactiae; clinical isolate S. agalactiae 4368; 10^6 cells/ml
# S. pyogenes 3102 = assay: MIC, clinical isolates; type: cell-based; settings: Streptococcus pyogenes; clinical isolate S. pyogenes 3102; 10^6 cells/ml
# E. faecalis 401 = assay: MIC, clinical isolates; type: cell-based; settings: Enterococcus faecalis; clinical isolate E. faecalis 401; 10^6 cells/ml
# S. pyogenes 4340 = assay: MIC, clinical isolates; type: cell-based; settings: Streptococcus pyogenes; clinical isolate S. pyogenes 4340; 10^6 cells/ml
# S. pyogenes IID 692 = assay: MIC, aerobic bacteria; type: cell-based; settings: Streptococcus pyogenes, IID692, Gram +, 10^6 cells/ml
# S. pyogenes 3107 = assay: MIC, clinical isolates; type: cell-based; settings: Streptococcus pyogenes; clinical isolate S. pyogenes 3107; 10^6 cells/ml
# [11] = tested on: Yersinia enterocolitica IID 981; assay: microbe, parasite or virus in culture; settings: IID981
# S. pneumoniae 2054 = assay: MIC, clinical isolates; type: cell-based; settings: Streptococcus pneumoniae; clinical isolate S. pneumoniae 2054; 10^6 cells/ml
# [12] = tested on: B. melaninogenicus GAI 0410; assay: MIC, anaerobic bacteria; settings: Prevotella intermedia, GAI0410
Structure (SMILES),MIC (E. faecalis IID 682) [µg/mL],MIC (S. pyogenes 3130) [µg/mL],MIC [1] [µg/mL],MIC (E. lentum GAI 5242) [µg/mL],MIC [2] [µg/mL],MIC (S. pyogenes 4372) [µg/mL],MIC (P. cepacia GIFU 518) [µg/mL],MIC [3] [µg/mL],MIC (C. ramosum) [µg/mL],MIC (S. agalactiae 4342) [µg/mL],MIC (P. maltophilia GIFU 2491) [µg/mL],MIC [4] [µg/mL],MIC (F. necrophorum S-45) [µg/mL],MIC (K. pneumoniae 1-220S) [µg/mL],MIC (F. nucleatum) [µg/mL],MIC (B. fragilis 25285) [µg/mL],MIC [5] [µg/mL],MIC (Pst. micros UPI 5464-1) [µg/mL],MIC [6] [µg/mL],MIC (B. distasonis 8503) [µg/mL],other results
"O=C(O)c1cn(C2CC2)c2c(F)c(N3CCC(CNCCF)C3)c(F)cc2c1=O (centres unmarked) [Exp. 2, 1-Cyclopropyl-7-[3-(2-fluoroethyl)aminomethyl-1-pyrrolidinyl]-6,8-difluoro-1,4-dihydro-4-oxo-3-quinolinecarboxylic acid]",0.1,0.05,0.1,0.39,0.0125,0.05,0.78,0.39,0.39,0.05,0.2,≤ 0.05,0.2,0.1,0.2,0.39,0.2,0.2,0.39,0.78,MIC (B. vulgatus KYA 29327): 0.39 µg/mL; MIC [7]: 0.78 µg/mL; MIC [8]: 0.2 µg/mL; MIC (B. fragilis 0558): 0.39 µg/mL; MIC [9]: ≤ 0.05 µg/mL; MIC (E. faecalis 49): 0.05 µg/mL; MIC (S. pyogenes 3131): 0.05 µg/mL; MIC [10]: 0.78 µg/mL; MIC (S. agalactiae 4368): 0.05 µg/mL; MIC (S. pyogenes 3102): 0.05 µg/mL; MIC (E. faecalis 401): 0.1 µg/mL; MIC (S. pyogenes 4340): 0.05 µg/mL; MIC (S. pyogenes IID 692): 0.1 µg/mL; MIC (S. pyogenes 3107): 0.05 µg/mL; MIC [11]: 0.1 µg/mL; MIC (S. pneumoniae 2054): 0.05 µg/mL; MIC [12]: 0.39 µg/mL
"O=C(O)c1cn(C2CC2)c2c(Cl)c(N3CCC(CNCCF)C3)c(F)cc2c1=O (centres unmarked) [Exp. 1, 8-Chloro-1-cyclopropyl-6-fluoro-7-[3-(2-fluoroethyl)aminomethyl-1-pyrrolidinyl]-1,4-dihydro-4-oxo-3-quinolinecarboxylic acid]",0.05,0.025,0.1,0.1,≤ 0.0063,0.025,0.78,0.39,0.1,0.05,0.2,≤ 0.05,0.1,0.1,≤ 0.05,≤ 0.05,≤ 0.05,0.1,≤ 0.05,0.2,MIC (B. vulgatus KYA 29327): ≤ 0.05 µg/mL; MIC [7]: 0.2 µg/mL; MIC [8]: 0.1 µg/mL; MIC (B. fragilis 0558): ≤ 0.05 µg/mL; MIC [9]: ≤ 0.05 µg/mL; MIC (E. faecalis 49): 0.05 µg/mL; MIC (S. pyogenes 3131): 0.025 µg/mL; MIC [10]: 0.39 µg/mL; MIC (S. agalactiae 4368): 0.025 µg/mL; MIC (S. pyogenes 3102): 0.025 µg/mL; MIC (E. faecalis 401): 0.05 µg/mL; MIC (S. pyogenes 4340): 0.025 µg/mL; MIC (S. pyogenes IID 692): 0.05 µg/mL; MIC (S. pyogenes 3107): 0.025 µg/mL; MIC [11]: 0.1 µg/mL; MIC (S. pneumoniae 2054): 0.025 µg/mL; MIC [12]: 0.1 µg/mL
